For the experiment, the target named is NTR1 (Homo sapiens, UniProt P30989). Nature of the experiment: NTR1 high-content imaging (HCS) dose response, NTR1-U2OS cells. Type of experiment: cell-based. More on the design: host or cells: U2OS osteosarcoma. The settings on record: n = 4 unless otherwise noted; for EC50: Ave. ± S.E.M., read-out: HCS NTR1 Potency EC50; for Emax: read-out: HCS NTR1 Potency Emax. From the text:
The cell lines utilized in the high-content imaging assays, which include the NTR1-, NTR2-, and GPR35-U2OS osteosarcomas, were obtained from the laboratory of Dr. Lawrence Barak at the Duke University Medical Center. The media used in the culture of the cell lines, as well as the assays themselves, consisted of Minimum Essential Medium (15-010-CM) and L-glutamine (25-005-CL) from Cellgro/Mediatech (Manassas, Va.), fetal bovine serum (SH30396.03) from Hyclone (Logan, Utah), penicillin-streptomycin solution (PS-20) from Omega Scientific in Tarzana, Calif., G418 (ant-gn-1) from Invivogen (San Diego, Calif.), and zeocin (R250-01) from Invitrogen (Carlsbad, Calif.). Cell lines were cultured in T225 tissue culture flasks (431082) supplied by Corning (Corning, N.Y.). Additional reagents employed include Dulbecco's Phosphate-Buffered Saline (DPBS) (21-031CV) from Cellgro/Mediatech, Trypsin-EDTA 0.05% (25300) from Invitrogen, paraformaldehyde (30528954) from Acros Organics (Geel, Belgium), Hoechst 33342 (H3570) from Invitrogen. The high-content assays were run in 1536-well plates (29326) supplied by Aurora Biotechnology (Poway, Calif.) and utilized aluminum plate seals (T592100) from E&K Scientific (Santa Clara, Calif.).
The neurotensin 1 peptide (N6383) from Sigma-Aldrich (St. Louis, Mo.) was used as a positive control in the NTR1 primary HCS assay. For the NTR2 selectivity assay, the non-specific, small molecule 3-(4-fluorophenyl)-7,8-dimethoxy-5-(4-methylbenzyl)-5H-pyrazolo[4,3-c]quinolone which was synthesized internally was used as a positive control. The GPR35 selectivity screen utilized zaprinast (ALX430-020-M010) from Alexis Biochemicals (Farmingdale, N.Y.) as a control.
The high-content imaging based NTR1 primary screen in 1536-well format was utilized to assay the MLSMR library of chemical entities in the following manner. On day one, 4 uL of a cell suspension containing 350,000 NTR1-U2OS cells per mL is added to each well of a 1536-well assay plate. Cells are plated in MEM medium containing 2.5% Fetal Bovine Serum, 1% Penicillin/Streptomycin solution, 1% L-Glutamine, 400 ug/mL G418, and 200 ug/mL Zeocin. The assay plates are then incubated overnight at 37° C., under 5% CO2. Following the overnight incubation, a volume of 60 nL of the compounds at 2 mM in DMSO (final 20 μM, 1% DMSO) was transferred to columns 5-48 of the assay plates using a LabCyte Echo Liquid Handler. Next, 60 nL of DMSO were dispensed to columns 1-4, which served as the positive and neutral control wells. […] The assay plates were centrifuged on an Eppendorf 5810 centrifuge at 1000 rpm for 1 min to ensure even liquid levels in the wells of the assay plates. The assay plates were then returned to the incubator for 1 hour. Following the hour-long incubation at 37° C., the cells in each well were fixed with 4 uL of 6% paraformaldehyde added with a Multidrop Combi. The assay plates were centrifuged as before and incubated at room temperature for 1 hour. On the Kalypsys, plates were then aspirated down to 2.5 uL per well and washed twice with 11 uL per well of DPBS, followed by a final aspiration to 2.5 uL per well. On the Combi dispenser, 5 uL of 5 ug/mL Hoechst 33342 diluted in DPBS was added to each well of assay plates. The plates were again centrifuged as previously described, sealed, and incubated for at least 1 hour prior to being loaded on a PerkinElmer Opera QEHS.
Image acquisition was performed with a 45 plate capacity loader/stacker and the following settings: 40×0.6 NA air objective, acquisition camera set to 2-by-2 binning for an image size of 688 by 512 pixels, beta-arrestin-GFP acquired using 488 nm laser excitation and 540/75 nm emission filters, DAPI (nuclei) using 365 nm Xenon lamp excitation and 450/50 nm emission filters, 3 fields per well. Image analysis was performed using the Acapella Spot Detection Algorithm. For analysis settings and the metrics employed in the data analyses, please refer to supplemental information.

Chain of NTR1 (P30989 whole entry, species assumed): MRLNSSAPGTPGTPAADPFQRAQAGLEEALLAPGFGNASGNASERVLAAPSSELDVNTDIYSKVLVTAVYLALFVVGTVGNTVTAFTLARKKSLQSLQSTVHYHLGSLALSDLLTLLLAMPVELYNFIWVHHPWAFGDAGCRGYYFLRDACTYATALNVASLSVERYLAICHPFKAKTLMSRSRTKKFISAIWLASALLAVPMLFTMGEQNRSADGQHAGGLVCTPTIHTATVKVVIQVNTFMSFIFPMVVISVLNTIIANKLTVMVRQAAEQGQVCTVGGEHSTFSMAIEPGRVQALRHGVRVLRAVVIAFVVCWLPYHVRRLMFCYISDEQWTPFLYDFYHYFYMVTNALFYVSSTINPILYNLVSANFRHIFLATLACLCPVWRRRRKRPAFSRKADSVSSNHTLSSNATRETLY

Take `CCOc1ccccc1N1CCN(c2nc(C3CC3)nc3cc(OC)c(OC)cc23)CC1` [Compound 339, 2-cyclopropyl-4-(4-(2-ethoxyphenyl)piperazin-1-yl)-6,7-dimethoxyquinazoline]: the concentration giving a half-maximal response (EC50) (commonly the concentration that produces a half-maximal response) came to 6.1 ± 0.4 µM and the Emax (in general, the greatest response seen or fitted, relative to the assay's reference) is 98.4%. The like results for `COc1cc2nc(C3CC3)nc(N3CCN(c4ccccc4Cl)CC3)c2cc1OC` [Compound 340, 4-(4-(2-chlorophenyl)piperazin-1-yl)-2-cyclopropyl-6,7-dimethoxyquinazoline] were, in that order, 19.8 ± 2.2 µM and 100%.

On to `COc1cc2nc(C3CC3)nc(N3CCN(Cc4ccc(C)cc4)CC3)c2cc1OC` [Compound 342, 2-cyclopropyl-6,7-dimethoxy-4-(4-(4-methylbenzyl)piperazin-1-yl)quinazoline], for which the concentration for a half-maximal effect (EC50) turned out to be 25 ± 3.2 µM. For the molecule `COc1ccccc1CN1CCN(c2nc(C3CC3)nc3cc(OC)c(OC)cc23)CC1` [Compound 343, 2-cyclopropyl-6,7-dimethoxy-4-(4-(2-methoxybenzyl)piperazin-1-yl)quinazoline], the concentration for a half-maximal effect (EC50) came out at 34.9 ± 4.4 µM and the Emax is 100%. Regarding `COc1cc2nc(C3CC3)nc(N3CCN(C(=O)c4ccccc4)CC3)c2cc1OC` [Compound 344, (4-(2-cyclopropyl-6,7-dimethoxyquinazolin-4-yl)piperazin-1-yl)(phenyl)methanone], the concentration for a half-maximal effect (EC50) was 45.3 µM and the Emax came to 100%. In the case of `COc1cc2nc(C3CC3)nc(N3CCN(C(=O)c4ccccc4OC)CC3)c2cc1OC` [Compound 345, (4-(2-cyclopropyl-6,7-dimethoxyquinazolin-4-yl)piperazin-1-yl)(2-methoxyphenyl)methanone], the concentration for a half-maximal effect (EC50) is 67.7 ± 5.5 µM and the maximal response (Emax) was found to be 100%.
